The subject of the test is LNCaP cells. Description: LNCaP cell viability assay (MTS). The test is classed as cell-based. As to conditions: Homo sapiens, LNCaP, 48 h, LNCaP cell line. As to the method:
LNCaP cell line was used for the cell viability assay. LNCaP cells were plated in 96-well plates at a density of 5000 cells per well. After 24 hours of plating, the cells were treated with increasing doses of compound (e.g., compounds 1-269) ranging from 1 μM to 80 μM. Relative cell numbers were analyzed after 48 hours using 3-(4,5-dimethylthiazol-2-yl)-5-(3-carboxymethoxyphenyl)-2-(4-sulfophenyl)-2H-tetrazolium (MTS) assay (Promega) according to the manufacturer's instructions.
The cell viability data was analyzed with GraphPad Prism software. The values were log transformed and analyzed with non-linear regression (curve-fit) using log(inhibitor) vs. response-variable slope (four parameters) and constraining the bottom to equal zero. Unless otherwise indicated, the GI50 values provided in Table 113 correspond to the LNCaP cell viability assays.

Regarding `CC(NS(=O)(=O)c1ccc(OC(F)(F)F)cc1)c1cc(F)ccc1N1CCC(O)CC1` (centres unmarked) [Compound 21, N-(1-(5-fluoro-2-(4-hydroxypiperidin-1-yl)phenyl)ethyl)-4-(trifluoromethoxy)benzenesulfonamide], the 50% growth inhibitory concentration (GI50) (commonly the concentration that inhibits growth by half) came to 46.8 µM.

On to `COC(=O)CC(NS(=O)(=O)c1ccc(OC(F)(F)F)cc1)c1ccc(OC)c(Br)c1` (centres unmarked) [Compound 22], for which the concentration for 50% growth inhibition (GI50) was found to be 39.1 µM.

`COC(=O)C(C)C(NS(=O)(=O)c1ccc(OC(F)(F)F)cc1)c1ccccc1` (centres unmarked) [Compound 23] had a 50% growth inhibitory concentration (GI50) of 43.1 µM.

On to `CCOC(=O)CC(NS(=O)(=O)c1ccc(OC(F)(F)F)cc1)c1ccc(C)cc1` (centres unmarked) [Compound 24], for which the concentration for 50% growth inhibition (GI50) was determined as 44.2 µM.

Consider `CCOC(=O)CC(NS(=O)(=O)c1ccc(OC(F)(F)F)cc1)c1ccc(OCC)cc1` (centres unmarked) [Compound 25], for which halving of growth (GI50) required 75.6 µM.

As for `CC(C)CC(NS(=O)(=O)c1ccc(OC(F)(F)F)cc1)c1cccc(C#N)c1` (centres unmarked) [Compound 26, N-(1-(3-cyanophenyl)-3-methylbutyl)-4-(trifluoromethoxy)benzenesulfonamide], growth was halved (GI50) at 28.9 µM.

In the case of `COc1ccc(OC)c(CCCNS(=O)(=O)c2ccc(OC(F)(F)F)cc2)c1` [Compound 27, N-(3-(2,5-dimethoxyphenyl)propyl)-4-(trifluoromethoxy)benzenesulfonamide], it took 40.2 µM to inhibit growth by half (GI50).

On to `CCc1ccc(C(CNS(=O)(=O)c2ccc(OC(F)(F)F)cc2)N2CCCC2)cc1` (centres unmarked) [Compound 28, N-(2-(4-ethylphenyl)-2-(pyrrolidine-1-yl)ethyl)-4-(trifluoromethoxy)benzenesulfonamide], for which halving of growth (GI50) required 55.8 µM.

On to `CCOc1ccc(Cl)cc1CCNS(=O)(=O)c1ccc(OC(F)(F)F)cc1` [Compound 29, N-(5-chloro-2-ethoxyphenethyl)-4-(trifluoromethoxy)benzenesulfonamide], for which it took 38.3 µM to inhibit growth by half (GI50).

As to `O=S(=O)(NCc1ccccc1N1CCCC1)c1ccc(OC(F)(F)F)cc1` [Compound 30, N-(2-(pyrrolidin-1-yl)benzyl)-4-(trifluoromethoxy)benzenesulfonamide], it took 49.7 µM to inhibit growth by half (GI50).

`CC1CCN(C(CNS(=O)(=O)c2ccc(OC(F)(F)F)cc2)c2ccco2)CC1` (centres unmarked) [Compound 31, N-(2-(furan-2-yl)-2-(4-methylpiperidin-1-yl)ethyl)-4-(trifluoromethoxy)benzenesulfonamide] showed a GI50 of 45.9 µM.

Compound `COc1cc(C2(CNS(=O)(=O)c3ccc(OC(F)(F)F)cc3)CCCC2)ccc1OC(F)F` [Compound 33, N-((1-(4-(difluoromethoxy)-3-methoxyphenyl)cyclopentyl)methyl)-4-(trifluoromethoxy)benzenesulfonamide] returned a GI50 of 73.4 µM.

Regarding `O=S(=O)(NC(c1ccc(F)c(C(F)(F)F)c1)C1CC1)c1ccc(OC(F)(F)F)cc1` (centres unmarked) [Compound 34, N-(cyclopropyl(4-fluoro-3-(trifluoromethyl)phenyl)methyl)-4-(trifluoromethoxy)benzenesulfonamide], it took 40.1 µM to inhibit growth by half (GI50).

For the compound `COCCC(NS(=O)(=O)c1ccc(OC(F)(F)F)cc1)c1ccc(Cl)c(Cl)c1` (centres unmarked) [Compound 35, N-(1-(3,4-dichlorophenyl)-3-methoxypropyl)-4-(trifluoromethoxy)benzenesulfonamide], it took 50.9 µM to inhibit growth by half (GI50).

The compound `O=S(=O)(NC(c1cccc(C(F)(F)F)c1)C1CCCCC1)c1ccc(OC(F)(F)F)cc1` (centres unmarked) [Compound 36, N-(cyclohexyl(3-(trifluoromethyl)phenyl)methyl)-4-(trifluoromethoxy)benzenesulfonamide] displayed a GI50 of 29.1 µM.

`COC(=O)CC(NS(=O)(=O)c1ccc(OC(F)(F)F)cc1)C1CCCCC1` (centres unmarked) [Compound 37, Methyl 3-cyclohexyl-3-((4-(trifluoromethoxy)phenyl)sulfonamido)propanoate] displayed a concentration for 50% growth inhibition (GI50) of 60 µM.

Consider `COC(=O)CC(NS(=O)(=O)c1ccc(OC(F)(F)F)cc1)c1cccc(Br)c1` (centres unmarked) [Compound 38, Methyl 3-(3-bromophenyl)-3-((4-(trifluoromethoxy)phenyl)sulfonamido)propanoate], for which halving of growth (GI50) required 66.5 µM.
